Reference: patent US9745310B2 (SK BIOPHARMACEUTICALS CO., LTD., priority 2015, dated 2017)

Molecular target: human mGluR5 receptor (Homo sapiens (Human), UniProt P41594)
Test: Calcium influx assay based on fluorescence (mGluR5 PAM activity)
Settings: human mGluR5 receptor-overexpressed HEK293 cell line; L-glutamate EC20; Fluo-4, FLIPR
Outline: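 HEK293 cells overexpressing human mGluR5, loaded 1 h with Fluo-4 at 37° C. Compounds (10 μM to 10 nM final, 0.1–0.2% DMSO) added with an EC20 concentration of L-glutamate, and Ca2+ response read by FLIPR at room temperature. Activity scaled as 0% for EC20 glutamate alone and 100% for glutamate maximum.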

Sequence of human mGluR5 receptor (P41594 21-1212): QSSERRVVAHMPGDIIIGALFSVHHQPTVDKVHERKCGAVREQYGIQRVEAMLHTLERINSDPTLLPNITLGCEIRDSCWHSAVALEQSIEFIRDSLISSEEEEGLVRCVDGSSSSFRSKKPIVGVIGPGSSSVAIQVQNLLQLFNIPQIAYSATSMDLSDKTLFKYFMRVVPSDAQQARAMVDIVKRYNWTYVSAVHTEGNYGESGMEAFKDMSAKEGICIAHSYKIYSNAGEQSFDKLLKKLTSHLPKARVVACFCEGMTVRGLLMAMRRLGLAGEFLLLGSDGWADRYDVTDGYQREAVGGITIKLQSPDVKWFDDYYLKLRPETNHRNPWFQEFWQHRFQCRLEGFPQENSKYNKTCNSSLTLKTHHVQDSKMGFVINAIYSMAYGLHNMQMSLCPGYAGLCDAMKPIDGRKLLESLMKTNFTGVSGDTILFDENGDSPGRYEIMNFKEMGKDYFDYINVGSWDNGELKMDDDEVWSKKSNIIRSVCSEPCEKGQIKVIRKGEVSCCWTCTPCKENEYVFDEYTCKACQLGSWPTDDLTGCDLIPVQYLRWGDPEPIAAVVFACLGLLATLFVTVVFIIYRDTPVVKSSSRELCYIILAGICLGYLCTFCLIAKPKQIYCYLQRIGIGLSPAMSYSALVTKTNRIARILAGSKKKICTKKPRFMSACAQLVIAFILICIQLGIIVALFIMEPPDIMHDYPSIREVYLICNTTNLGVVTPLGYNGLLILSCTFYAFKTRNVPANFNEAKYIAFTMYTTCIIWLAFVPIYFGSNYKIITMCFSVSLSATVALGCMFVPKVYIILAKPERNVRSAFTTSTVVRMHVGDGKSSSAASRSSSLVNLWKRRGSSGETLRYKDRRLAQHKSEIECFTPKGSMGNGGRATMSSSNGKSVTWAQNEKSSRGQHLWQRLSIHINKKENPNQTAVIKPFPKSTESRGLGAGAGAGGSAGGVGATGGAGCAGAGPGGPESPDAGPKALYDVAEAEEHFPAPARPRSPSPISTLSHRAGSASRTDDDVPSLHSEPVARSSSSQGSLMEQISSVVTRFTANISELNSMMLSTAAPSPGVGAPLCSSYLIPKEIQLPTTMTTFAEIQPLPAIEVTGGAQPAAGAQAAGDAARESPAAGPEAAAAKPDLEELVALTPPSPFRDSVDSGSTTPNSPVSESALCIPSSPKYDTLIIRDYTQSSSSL

Row | SMILES | EC50 [nM]
1 | Fc1ccc(-c2cnc3nc(COc4ccccn4)cn3n2)c(C(F)(F)F)c1 [Example 186, 2-[4-fluoro-2-(trifluoromethyl)phenyl]-6-(2-pyridyloxymethyl)imidazo[1,2-b][1,2,4]triazine] | 100 to 500
2 | Oc1cc(F)ccc1-c1cnc2nc(COc3ccnc(F)c3)cn2c1 [Example 167, 6-(4-fluoro-2-hydroxyphenyl)-2-(2-fluoropyridin-4-yloxymethyl)imidazo[1,2-a]pyrimidine] | 100 to 500
3 | Fc1ccc(-c2cnc3nc(COc4ccccc4)cn3c2)c2c1OCO2 [Example 24, 6-(7-fluorobenzo[1,3]dioxol-4-yl)-2-phenoxymethylimidazo[1,2-a]pyrimidine] | 100 to 500
4 | Cc1ccccc1-c1cnc2nc(COc3cncc(F)c3)cn2c1 [Example 153, 6-(2-methylphenyl)-2-(5-fluoro-pyridin-3-yloxymethyl)imidazo[1,2-a]pyrimidine] | 100 to 500
5 | Nc1cc(-c2cnc3nc(COc4ccc(F)cn4)cn3c2)ccc1F [Example 133, 2-fluoro-5-[2-[(5-fluoro-2-pyridyl)oxymethyl]imidazo[1,2-a]pyrimidin-6-yl]aniline] | 500 to 1000
6 | COc1c(F)cccc1-c1cnc2nc(COc3cc(F)ccn3)cn2c1 [Example 121, 6-(3-fluoro-2-methoxy-phenyl)-2-[(4-fluoro-2-pyridyl)oxymethyl)imidazo[1,2-a]pyrimidine] | 100 to 500
7 | Cc1cc(F)ccc1-c1cnc2nc(COc3cccnc3F)cn2c1 [Example 159, 6-(4-fluoro-2-methylphenyl)-2-(2-fluoropyridin-3-yloxymethyl)imidazo[1,2-a]pyrimidine] | 500 to 1000
8 | Cc1cc(Cl)ccc1-c1cnc2nc(COc3ccc(F)cn3)cn2c1 [Example 127, 6-(4-chloro-2-methyl-phenyl)-2-[(5-fluoro-2-pyridyl)oxymethyl)imidazo[1,2-a]pyrimidine] | 100 to 500
9 | Fc1ccc(-c2cnc3nc(COc4ccnc(F)c4)cn3c2)c(F)c1 [Example 161, 6-(2,4-difluorophenyl)-2-(2-fluoropyridin-4-yloxymethyl)imidazo[1,2-a]pyrimidine] | 100 to 500
10 | [2H]c1c([2H])c([2H])c(OCc2cn3cc(-c4ccc(F)cc4)cnc3n2)c([2H])c1[2H] [Example 59, 6-(4-fluorophenyl)-2-[(2,3,4,5,6-pentadeuteriophenoxy)methyl]imidazo[1,2-a]pyrimidine] | 100 to 500
11 | FCc1cc(F)ccc1-c1cnc2nc(COc3ccc(F)cc3)cn2c1 [Example 199, 6-[4-fluoro-2-(fluoromethyl)phenyl]-2-[(4-fluorophenoxy)methyl]imidazo[1,2-a]pyrimidine] | 100 to 500
12 | Cc1ccncc1-c1cnc2nc(COc3cccc(F)c3)cn2c1 [Example 46, 6-(4-methylpyridin-3-yl)-2-(3-fluorophenoxymethyl)imidazo[1,2-a]pyrimidine] | 100 to 500
13 | Cc1cc(F)ccc1-c1cnc2nc(COc3ccc(F)cn3)cn2c1 [Example 114, 6-(4-fluoro-2-methyl-phenyl)-2-[(5-fluoro-2-pyridyl)oxymethyl)imidazo[1,2-a]pyrimidine] | 100 to 500
14 | Fc1ccc(OCc2cn3cc(-c4ccccc4)cnc3n2)cc1 [Example 56, 2-[(4-fluorophenoxy)methyl]-6-phenyl-imidazo[1,2-a]pyrimidine] | 100 to 500
15 | Fc1cccc(OCc2cn3cc(-c4ccc(F)nc4)cnc3n2)c1 [Example 81, 2-[(3-fluorophenoxy)methyl]-6-(6-fluoro-3-pyridyl)imidazo[1,2-a]pyrimidine] | 100 to 500
16 | COc1cncc(-c2cnc3nc(COc4ccc(F)cc4)cn3c2)c1 [Example 89, 2-[(4-fluorophenoxy)methyl]-6-(5-methoxy-3-pyridyl)imidazo[1,2-a]pyrimidine] | 500 to 1000
17 | Fc1ccc(-c2cnc3nc(COc4ccccn4)cn3c2)cc1 [Example 102, 6-(4-fluorophenyl)-2-(pyridin-2-yloxymethyl)imidazo[1,2-a]pyrimidine] | 100 to 500
18 | COc1cc(Cl)ccc1-c1cnc2nc(COc3ccccn3)cn2c1 [Example 111, 6-(4-chloro-2-methoxyphenyl)-2-(pyridin-2-yloxymethyl)imidazo[1,2-a]pyrimidine] | 100 to 500
19 | Cc1ccc(F)cc1-c1cnc2nc(COc3ccccn3)cn2c1 [Example 108, 6-(5-fluoro-2-methylphenyl)-2-(pyridin-2-yloxymethyl)imidazo[1,2-a]pyrimidine] | 500 to 1000
20 | COc1cc(-c2cnc3nc(COc4ccccc4)cn3c2)ccc1F [Example 21, 6-(4-fluoro-3-methoxyphenyl)-2-phenoxymethylimidazo[1,2-a]pyrimidine] | 500 to 1000
21 | Fc1ccc(-c2cnc3nc(COc4cccnc4)cn3c2)c(F)c1 [Example 148, 6-(2,4-difluorophenyl)-2-(pyridin-3-yloxymethyl)imidazo[1,2-a]pyrimidine] | 500 to 1000
22 | Fc1ccc(OCc2cn3cc(-c4ccc(F)cc4)cnc3n2)cc1 [Example 53, 2-[(4-fluorophenoxy)methyl]-6-(4-fluorophenyl)imidazo[1,2-a]pyrimidine] | 100 to 500

Row | SMILES | EC50 [nM]
23 | Fc1cccc(-c2cnc3nc(COc4ccccn4)cn3c2)c1F [Example 107, 6-(2,3-difluorophenyl)-2-(pyridin-2-yloxymethyl)imidazo[1,2-a]pyrimidine] | 500 to 1000
24 | Cc1cc(Cl)ccc1-c1cnc2nc(COc3ccccn3)cn2n1 [Example 190, 2-(4-chloro-2-methyl-phenyl)-6-(2-pyridyloxymethyl)imidazo[1,2-b][1,2,4]triazine] | 100 to 500
25 | Fc1ccc(-c2cnc3nc(COc4ccccc4)cn3c2)c(C(F)(F)F)c1 [Example 18, 6-(4-fluoro-2-trifluoromethylphenyl)-2-phenoxymethylimidazo[1,2-a]pyrimidine] | 100 to 500
26 | Clc1ccc(-c2cnc3nc(COc4ccccc4)cn3c2)cc1 [Example 37, 6-(4-chlorophenyl)-2-phenoxymethylimidazo[1,2-a]pyrimidine] | 500 to 1000
27 | COc1cc(C#N)ccc1-c1cnc2nc(COc3ccc(F)cn3)cn2c1 [Example 137, 4-[2-[(5-fluoro-2-pyridyl)oxymethyl]imidazo[1,2-a]pyrimidin-6-yl]-3-methoxy-benzonitrile] | 100 to 500
28 | CSc1cc(F)ccc1-c1cnc2nc(COc3ccc(F)cc3)cn2c1 [Example 98, 6-(4-fluoro-2-methylsulfanyl-phenyl)-2-[(4-fluorophenoxy)methyl]imidazo[1,2-a]pyrimidine] | 100 to 500
29 | Fc1cc(OCc2cn3cc(-c4ccccc4F)cnc3n2)ccn1 [Example 166, 6-(2-fluorophenyl)-2-(2-fluoropyridin-4-yloxymethyl)imidazo[1,2-a]pyrimidine] | 100 to 500
30 | Cc1ccc(-c2cnc3nc(COc4ccc(F)cc4)cn3c2)c(F)c1 [Example 64, 6-(2-fluoro-4-methyl-phenyl)-2-[(4-fluorophenoxy)methyl]imidazo[1,2-a]pyrimidine] | 500 to 1000
31 | CC(=O)OCc1cc(F)ccc1-c1cnc2nc(COc3ccccn3)cn2c1 [Example 196, [5-fluoro-2-[2-(2-pyridyloxymethyl)imidazo[1,2-a]pyrimidin-6-yl]phenyl]methyl acetate] | 100 to 500
32 | Cc1cc(F)ncc1-c1cnc2nc(COc3ccccc3)cn2c1 [Example 38, 6-(6-fluoro-4-methyl-3-pyridyl)-2-phenoxymethylimidazo[1,2-a]pyrimidine] | 100 to 500
33 | Nc1ccccc1-c1cnc2nc(COc3cccc(F)c3)cn2c1 [Example 44, 6-(2-aminophenyl)-2-(3-fluorophenoxymethyl)imidazo[1,2-a]pyrimidine] | 100 to 500
34 | Fc1cccc(OCc2cn3cc(-c4ccc(F)cc4C(F)(F)F)cnc3n2)c1 [Example 94, 2-[(3-fluorophenoxy)methyl]-6-[4-fluoro-2-(trifluoromethyl)phenyl]imidazo[1,2-a]pyrimidine] | 100 to 500
35 | COc1ccccc1-c1cnc2nc(COc3ccccc3)cn2c1 [Example 4, 6-(2-methoxyphenyl)-2-phenoxymethylimidazo[1,2-a]pyrimidine] | 100 to 500
36 | Cc1ccccc1-c1cnc2nc(COc3ccccn3)cn2c1 [Example 103, 6-(2-methylphenyl)-2-(pyridin-2-yloxymethyl)imidazo[1,2-a]pyrimidine] | 100 to 500
37 | Cc1ccc(-c2cnc3nc(COc4ccc(F)cc4)cn3c2)c(N)c1 [Example 74, 2-[2-[(4-fluorophenoxy)methyl]imidazo[1,2-a]pyrimidin-6-yl]-5-methyl-aniline] | 100 to 500
38 | COc1c(F)cccc1-c1cnc2nc(COc3ccccn3)cn2c1 [Example 112, 6-(3-fluoro-2-methoxy-phenyl)-2-(2-pyridyloxymethyl)imidazo[1,2-a]pyrimidine] | 100 to 500
39 | Fc1ccnc(OCc2cn3cc(-c4ccc(F)cc4F)cnc3n2)c1 [Example 120, 6-(2,4-difluorophenyl)-2-[(4-fluoro-2-pyridyl)oxymethyl)imidazo[1,2-a]pyrimidine] | 100 to 500
40 | NC(=O)OCc1cc(F)ccc1-c1cnc2nc(COc3ccccn3)cn2c1 [Example 195, [5-fluoro-2-[2-(2-pyridyloxymethyl)imidazo[1,2-a]pyrimidin-6-yl]phenyl]methyl carbamate] | 100 to 500
41 | Fc1ccc(-c2cnc3nc(COc4ccc(F)nc4)cn3c2)c(F)c1 [Example 157, 6-(2,4-difluorophenyl)-2-(6-fluoropyridin-3-yloxymethyl)imidazo[1,2-a]pyrimidine] | 500 to 1000
42 | FC(F)(F)c1cc(Cl)ccc1-c1cnc2nc(COc3ccccn3)cn2c1 [Example 145, 6-[4-chloro-2-(trifluoromethyl)phenyl]-2-(2-pyridyloxymethyl)imidazo[1,2-a]pyrimidine] | 100 to 500
43 | Oc1cccc(-c2cnc3nc(COc4ccccc4)cn3c2)c1 [Example 17, 6-(3-hydroxyphenyl)-2-phenoxymethylimidazo[1,2-a]pyrimidine] | 500 to 1000
44 | Nc1cc(-c2cnc3nc(COc4ccccc4)cn3c2)ccc1F [Example 12, 6-(3-amino-4-fluorophenyl)-2-phenoxymethylimidazo[1,2-a]pyrimidine] | 500 to 1000
